{"source": "patent US10722496B2", "about": "“2-iminobiotin for use in the treatment of brain cell injury” (Neurophyxia B.V., priority 2015, dated 2020)", "tested_on": "IMR-32 cells", "experiment": "Reactive oxygen species (ROS) measurement, H2DCFDA", "assay_type": "cell-based, human", "protocol": "In vitro hypoxia was induced in the cell cultures by using our recently described system with minor modifications (Huang et al., 2013b; Weber et al., 2015; Zitta et al., 2010). Enzyme stock solutions (100×) of catalase and glucose oxidase (both from Sigma-Aldrich) were prepared in cell culture medium (DMEM/F12, 1% FCS; final concentration: 120 U/ml and 2 U/ml respectively; Sigma-Aldrich) leading to a decrease of partial pressure of oxygen (pO2) below 10 mmHg within 5 minutes. Hypoxic conditions were confirmed by using a tissue oxygen pressure monitor (LICOX® CMP Oxygen Catheter; Integra, Plainsboro, USA). After 7 hours of hypoxia, the cells were washed twice with PBS (PAA) and fresh normoxic medium supplemented with solvent (citrate buffer 1%) or 2-IB (10, 30, 50, 100 and 300 ng/mL) was added to the cells. Investigations of cell damage, metabolic activity, ROS, hydrogen peroxide, nitrite/nitrate production, erkl/2, akt and stat5 phosphorylation as well as cell stress protein expression were performed with cell culture media or cell protein (FIG. 1).\nFor reactive oxygen species (ROS) measurements, 4×10^4 cells were seeded per well and cultured for 3 days in black walled 96-well plates (Greiner Bio-One, Frickenhausen, Germany). After hypoxia, cells were washed with pre-warmed PBS and cultured in a phenol red-free DMEM/F12 medium (Gibco®-invitrogen, NY, USA) with 1% fetal calf serum (PAA) for 17 hours, supplemented with solvent (citrate 1%) or 2-IB (10, 30, 50, 100, 300 ng/ml). Intracellular ROS were measured by adding 2′7′-dichlorodihydrofluorescein diacetate (H2DCFDA, Sigma-Aldrich) to a final concentration of 10 μM which is oxidized to fluorescent dichlorofluorescein (DCF) by intracellular ROS. DCF-loaded cells were kept in the dark at 37° C. and fluorescence was evaluated at an excitation wavelength of 485 nm and emission wavelength of 535 nm using an ELISA reader (Genios F L; Tecan, Crailsheim, Austria). Fluorescence data were acquired at time points 0 (T0) and 30 minutes (T30) and results were calculated as the increment of fluorescence (%) over time [(T30-T0)/T0×100]. Hydrogen peroxide was measured in the culture medium with a Quanti-Chrom™ Peroxide Assay Kit (Bio-Assay Systems, Hayward, USA), which utilizes the chromogenic Fe3+-xylenol orange reaction, in which a purple complex is formed when Fe2+ provided in the reagent is oxidized to Fe3+ by the hydrogen peroxide present in the sample. Briefly, 100 μl of detection reagent were added to 20 μl of culture medium and measurements were performed based on the manufacturer's protocol. Absorbance of the colorimetric samples and standards was measured at 620 nm using an ELISA reader (Tecan, Crailsheim, Germany)."}
{"smiles": "N=C1N[C@H]2[C@H](CS[C@H]2CCCCC(=O)O)N1", "note": "[2-IB, 2-iminobiotin]", "values": [{"measurement": "ROS increase (T30-T0)/T0×100", "setting": "30 ng/ml 2-IB, hypoxia", "value": "222.00±52.57", "unit": "%"}, {"measurement": "ROS increase (T30-T0)/T0×100", "setting": "30 ng/ml 2-IB, normoxia", "value": "118.93±20.09", "unit": "%"}, {"measurement": "ROS increase (T30-T0)/T0×100", "setting": "50 ng/ml 2-IB, hypoxia", "value": "233.38±53.94", "unit": "%"}, {"measurement": "ROS increase (T30-T0)/T0×100", "setting": "50 ng/ml 2-IB, normoxia", "value": "154.85±30.83", "unit": "%"}, {"measurement": "ROS increase (T30-T0)/T0×100", "setting": "100 ng/ml 2-IB, hypoxia", "value": "246.71±58.94", "unit": "%"}, {"measurement": "ROS increase (T30-T0)/T0×100", "setting": "100 ng/ml 2-IB, normoxia", "value": "128.84±21.94", "unit": "%"}, {"measurement": "ROS increase (T30-T0)/T0×100", "setting": "300 ng/ml 2-IB, hypoxia", "value": "311.57±79.02", "unit": "%"}, {"measurement": "ROS increase (T30-T0)/T0×100", "setting": "300 ng/ml 2-IB, normoxia", "value": "141.20±25.35", "unit": "%"}, {"measurement": "hypoxia-induced generation of ROS, most efficient concentration", "setting": "10-300 ng/ml tested", "value": "most efficiently attenuated with 50 ng/ml 2-IB"}]}
